Format in all cases: cell-based
In one assay the test system is P. aeruginosa ATCC 27853. Briefly: antibiotic susceptibility testing using the cell culture test device (DRAST), reference strain. The conditions noted are these: Pseudomonas aeruginosa, ATCC27853, observed until 6 h. The text has this:
(§1) Referring first to (a) of FIG. 4, a liquid medium containing a gelling agent is mixed with a biological agent to prepare a mixture solution as a first fluid. The liquid medium may include at least about 95% by weight of water and can be solidified due to the presence of the gelling agent. As the gelling agent, there may be exemplified agar, agarose, gelatin, alginate, collagen or fibrin. The use of agar or agarose is preferred. For example, agar may be used in an amount of 0.5 to 4% by weight in the liquid medium. The liquid medium usually requires no nutrients. In some examples, however, the liquid medium may include nutrients. The liquid medium may be a solution including a medium stimulating the division of particular cells.
(§2) Referring next to (b) of FIG. 4, the mixture solution is provided to a recess 421 formed at the bottom of a first sub-well. The mixture solution may be loaded in an amount corresponding to the volume of the recess of the first sub-well. The volume of the mixture solution loaded into the recess of the first sub-well is preferably from 10 μl to 200 μl, more preferably from 10 μl to 150 μl. If the volume of the mixture solution loaded into the first sub-well is less than the lower limit, the density of cells in the mixture solution is low, making it difficult to observe the cells. […]

Assay [1] deals with P. aeruginosa. Briefly: broth microdilution (BMD) susceptibility testing, strain from blood sample. As to conditions: BMD testing method. As to the method:
(§3) The tests were conducted on various antibiotics that are currently used in testing organizations. […] The concentrations shown in FIG. 12 are expressed in μg/mL.

For assay [2], the system named is P. aeruginosa. The assay can be described thus: susceptibility testing using the cell culture test device (DRAST), strain from blood sample.
Source text: as §1
(§4) Referring next to (b) of FIG. 4, the mixture solution is provided to a recess 421 formed at the bottom of a first sub-well. The mixture solution may be loaded in an amount corresponding to the volume of the recess of the first sub-well. The volume of the mixture solution loaded into the recess of the first sub-well is preferably from 10 μl to 200 μl, more preferably from 10 μl to 150 μl. If the volume of the mixture solution loaded into the first sub-well is less than the lower limit, the density of cells in the mixture solution is low, making it difficult to observe the cells. Meanwhile, if the volume of the mixture solution loaded into the first sub-well exceeds the upper limit, the mixture solution may overflow into a second sub-well beyond a barrier. […] The micropatterned groove also allows the mixture solution to be well fixed to the desired area. […] Referring to FIG. 5, a micropatterned groove 522 is formed in the well a sample to fix the sample to only the desired area.
(§5) A blood sample positive for bacterial infection is collected and diluted with a medium containing a gelling agent.
(§6) The mixture solution is solidified to form a solid thin film immobilized with the biological agent. When the temperature of the liquid medium drops, the medium is solidified, which restricts the mobility of the biological agent. This immobilization facilitates continuous observation of the motile biological agent.
(§7) As shown in (c) of FIG. 4, a second sub-well 430 including a bioactive agent in a solid form is provided with a solvent capable of dissolving the bioactive agent. When a bioactive agent is absent in the second sub-well 430, a solution containing a bioactive agent can be provided to the second sub-well 430. Herein, the bioactive agent may include a substance selected from antibiotics, anticancer agents, drugs such as immunosuppressants, nutrients, cellular secretions, signal transducers, viruses, cells, micro RNAs, proteins, antigens, antibodies, and DNA.

Another assay deals with E. faecalis ATCC 29212. Briefly: antibiotic susceptibility testing using the cell culture test device (DRAST), reference strain. As to conditions: Enterococcus faecalis, ATCC29212, observed until 6 h.
Source text: as §1, §2

Assay [3] has as its system Enterobacter aerogenes. The assay can be described thus: broth microdilution (BMD) susceptibility testing, strain from blood sample. The conditions noted are these: E. aerogenes from blood sample; BMD testing method. As to the method:
as §3

In assay [4] the test system is Enterobacter aerogenes. Briefly: susceptibility testing using the cell culture test device (DRAST), strain from blood sample. As to conditions: E. aerogenes from blood sample.
Source text: as §1, §4, §5, §6, §7

Values after ≈ are worked out from the molar mass of the structure shown.

From patent publication US11377679B2, “Multi-well-based cell culture test device for rapid antibiotic susceptibility testing” (priority 2016, dated 2022) come the findings set out here.

For the molecule `C[C@H]1[C@H](NC(=O)/C(=N\OC(C)(C)C(=O)O)c2csc(N)n2)C(=O)N1S(=O)(=O)O` [aztreonam], in the assay with P. aeruginosa ATCC 27853, 8 µg/mL (≈ 18.4 µM) was the least that counted as inhibitory (MIC). Further, the figures for the susceptibility category result in the assay on P. aeruginosa [1] and in the assay on P. aeruginosa [2] were “I” and “susceptible”, respectively.

Take `CO/N=C(\C(=O)N[C@@H]1C(=O)N2C(C(=O)O)=C(COC(C)=O)CS[C@H]12)c1csc(N)n1` [cefotaxime]: the figures for the susceptibility category result in the assay on P. aeruginosa [1] and in the assay with P. aeruginosa [2] were “I” and “susceptible”, respectively.

For the molecule `CN(C)[C@@H]1C(O)=C(C(N)=O)C(=O)[C@@]2(O)C(O)=C3C(=O)c4c(O)cccc4[C@@](C)(O)[C@H]3C[C@@H]12` [tetracycline], in the assay on E. faecalis ATCC 29212, the MIC amounted to 8 µg/mL (≈ 18 µM).

As for `CC1(C)S[C@@H]2[C@H](NC(=O)[C@H](C(=O)O)c3ccsc3)C(=O)N2[C@H]1C(=O)O` [ticarcillin], the susceptibility category result with P. aeruginosa [1] was “I”; in the assay with P. aeruginosa [2] it was “susceptible”.

As for colistin, the susceptibility category entry in the assay on P. aeruginosa [1] is on record as “susceptible”; with Enterobacter aerogenes [3], “S”; in the assay with P. aeruginosa [2], “I”; with Enterobacter aerogenes [4], “I”.
